# Experimental data as given in patent publication US9050344B2, “Therapeutic compounds” (Gilead Sciences, Inc., priority 2013, dated 2015).
# Key:
# [1] = Test B: Cytotoxicity Assay (protocol of Test A, uninfected cells); type: cell-based; conditions: human, uninfected MT-4 cells, CellTiter-Glo
# Procedure: Test B: Cytotoxicity Assay Compound cytotoxicity and the corresponding CC50 values was determined using the same protocol as described in the antiviral assay (Test A) except that uninfected cells were used.
# HIV-IIIb = assay: Test A: Antiviral Assay in MT4 Cells; type: cell-based, HIV-1; conditions: Human immunodeficiency virus 1, IIIB, MT4, 120 h, read-out: % inhibition at 3 μM
# Procedure: Test A: Antiviral Assay in MT4 Cells
# For the antiviral assay, 40 μL of 1× test concentration of 3-fold serially diluted compound in culture medium with 10% FBS was added to each well of a 384-well plate (10 concentrations) in quadruplicate. MT-4 cells were next mixed with HIV-IIIb at an m.o.i of 0.003 for 1 hour, after which time 35 μL of virus/cell mixture (2000 cells) was immediately added to each well containing 40 μL of diluted compound. The plates were then incubated at 37° C. for 5 days. After 5 days of incubation, 25 μl of 2× concentrated CellTiter-Glo™ Reagent (catalog #G7571, Promega Biosciences, Inc., Madison, Wis.) was added to each well containing MT-4 cells. Cell lysis was carried out by incubating at room temperature for 10 min and then chemiluminescence was read.
SMILES,CC50 at 5 days [1],inhibition at 3 µM (HIV-IIIb)
"Cn1nc(NS(C)(=O)=O)c2cccc(-c3nc(N)cnc3C(Cc3cc(F)cc(F)c3)NC(=O)Cn3nc(C(F)F)c4c3C(F)(F)[C@@H]3C[C@H]43)c21 (stereo partly drawn) [Compound 61, N-(1-(5-amino-3-(1-methyl-3-(methylsulfonamido)-1H-indazol-7-yl)pyrazin-2-yl)-2-(3,5-difluorophenyl)ethyl)-2-((3bS,4aR)-3-(difluoromethyl)-5,5-difluoro-3b,4,4a,5-tetrahydro-1H-cyclopropa[3,4]cyclopenta[1,2-c]pyrazol-1-yl)acetamide]",> 53.2 µM,75%
"Cn1nc(NS(C)(=O)=O)c2cccc(-c3cnc(N4CC5(COC5)C4)nc3[C@H](Cc3cc(F)cc(F)c3)NC(=O)Cn3nc(C(F)(F)F)c4c3C(F)(F)[C@@H]3C[C@H]43)c21 [Compound 37, 2-((3bS,4aR)-5,5-difluoro-3-(trifluoromethyl)-3b,4,4a,5-tetrahydro-1H-cyclopropa[3,4]cyclopenta[1,2-c]pyrazol-1-yl)-N—((S)-2-(3,5-difluorophenyl)-1-(5-(1-methyl-3-(methylsulfonamido)-1H-indazol-7-yl)-2-(2-oxa-6-azaspiro[3.3]heptan-6-yl)pyrimidin-4-yl)ethyl)acetamide]",34 µM,95%
"CC(=O)Nc1cnc([C@H](Cc2cc(F)cc(F)c2)NC(=O)Cn2nc(C(F)(F)F)c3c2C(F)(F)[C@@H]2C[C@H]32)c(-c2cccc3c(NS(C)(=O)=O)nn(C)c23)c1 [Compound 39, N—((S)-1-(5-acetamido-3-(1-methyl-3-(methylsulfonamido)-1H-indazol-7-yl)pyridin-2-yl)-2-(3,5-difluorophenyl)ethyl)-2-((3bS,4aR)-5,5-difluoro-3-(trifluoromethyl)-3b,4,4a,5-tetrahydro-1H-cyclopropa[3,4]cyclopenta[1,2-c]pyrazol-1-yl)acetamide]",29.6 µM,92%
CC(=O)Nc1cnc([C@H](Cc2cc(F)cc(F)c2)NC(=O)Cn2nc(C(F)(F)F)c3c2C(F)(F)[C@@H]2C[C@H]32)c(-c2cccc3c(N(C(C)=O)S(C)(=O)=O)nn(C)c23)c1 [Compound 38B],40.8 µM,98%
"CSc1cnc([C@H](Cc2cc(F)cc(F)c2)NC(=O)Cn2nc(C(F)F)c3c2C(F)(F)[C@@H]2C[C@H]32)c(-c2cccc3c(NS(C)(=O)=O)nn(C)c23)n1 [Compound 55G, 2-((3bS,4aR)-3-(difluoromethyl)-5,5-difluoro-3b,4,4a,5-tetrahydro-1H-cyclopropa[3,4]cyclopenta[1,2-c]pyrazol-1-yl)-N—((S)-2-(3,5-difluorophenyl)-1-(3-(1-methyl-3-(methylsulfonamido)-1H-indazol-7-yl)-5-(methylthio)pyrazin-2-yl)ethyl)acetamide]",22.1 µM,107%
"Cc1c(-c2cc(NC(=O)C(F)(F)F)cnc2[C@H](Cc2cc(F)cc(F)c2)NC(=O)Cn2nc(C(F)(F)F)c3c2C(F)(F)[C@@H]2C[C@H]32)ccc2n[nH]c(=O)n12 [Compound 40, N-(6-((S)-1-(2-((3bS,4aR)-5,5-difluoro-3-(trifluoromethyl)-3b,4,4a,5-tetrahydro-1H-cyclopropa[3,4]cyclopenta[1,2-c]pyrazol-1-yl)acetamido)-2-(3,5-difluorophenyl)ethyl)-5-(5-methyl-3-oxo-2,3-dihydro-[1,2,4]triazolo[4,3-a]pyridin-6-yl)pyridin-3-yl)-2,2,2-trifluoroacetamide]",24.1 µM,96%
"Cc1nc([C@H](Cc2cc(F)cc(F)c2)NC(=O)Cn2nc(C(F)F)c3c2C(F)(F)[C@@H]2C[C@H]32)c(-c2cccc3c(NS(C)(=O)=O)nn(C)c23)cc1N [Compound 44, N—((S)-1-(5-amino-6-methyl-3-(1-methyl-3-(methylsulfonamido)-1H-indazol-7-yl)pyridin-2-yl)-2-(3,5-difluorophenyl)ethyl)-2-((3bS,4aR)-3-(difluoromethyl)-5,5-difluoro-3b,4,4a,5-tetrahydro-1H-cyclopropa[3,4]cyclopenta[1,2-c]pyrazol-1-yl)acetamide]",32 µM,107%
"Cn1nc(NS(C)(=O)=O)c2c(Cl)ccc(-c3cc(N)cnc3[C@H](Cc3cc(F)cc(F)c3)NC(=O)Cn3nc(C(F)(F)F)c4c3C(F)(F)[C@@H]3C[C@H]43)c21 [Compound 52, N—((S)-1-(5-amino-3-(4-chloro-1-methyl-3-(methylsulfonamido)-1H-indazol-7-yl)pyridin-2-yl)-2-(3,5-difluorophenyl)ethyl)-2-((3bS,4aR)-5,5-difluoro-3-(trifluoromethyl)-3b,4,4a,5-tetrahydro-1H-cyclopropa[3,4]cyclopenta[1,2-c]pyrazol-1-yl)acetamide]",21.5 µM,104%
"Cn1nc(NS(C)(=O)=O)c2cccc(-c3cc(N)c(C#N)nc3[C@H](Cc3cc(F)cc(F)c3)NC(=O)Cn3nc(C(F)(F)F)c4c3C(F)(F)[C@@H]3C[C@H]43)c21 [Compound 46F, N—((S)-1-(5-amino-6-cyano-3-(1-methyl-3-(methylsulfonamido)-1H-indazol-7-yl)pyridin-2-yl)-2-(3,5-difluorophenyl)ethyl)-2-((3bS,4aR)-5,5-difluoro-3-(trifluoromethyl)-3b,4,4a,5-tetrahydro-1H-cyclopropa[3,4]cyclopenta[1,2-c]pyrazol-1-yl)acetamide]",12.5 µM,109%
"CC(=O)Nc1cc(-c2ccc(Cl)c3c(NS(C)(=O)=O)nn(C)c23)c([C@H](Cc2cc(F)cc(F)c2)NC(=O)Cn2nc(C(F)F)c3c2C(F)(F)[C@@H]2C[C@H]32)nc1C [Compound 48, N—((S)-1-(5-acetamido-3-(4-chloro-1-methyl-3-(methylsulfonamido)-1H-indazol-7-yl)-6-methylpyridin-2-yl)-2-(3,5-difluorophenyl)ethyl)-2-((3bS,4aR)-3-(difluoromethyl)-5,5-difluoro-3b,4,4a,5-tetrahydro-1H-cyclopropa[3,4]cyclopenta[1,2-c]pyrazol-1-yl)acetamide]",20.7 µM,93%
"Cc1nc([C@H](Cc2cc(F)cc(F)c2)NC(=O)Cn2nc(C(F)F)c3c2C(F)(F)[C@@H]2C[C@H]32)c(-c2ccc(Cl)c3c(NS(C)(=O)=O)nn(C)c23)cc1N [Compound 47C, N—((S)-1-(5-amino-3-(4-chloro-1-methyl-3-(methylsulfonamido)-1H-indazol-7-yl)-6-methylpyridin-2-yl)-2-(3,5-difluorophenyl)ethyl)-2-((3bS,4aR)-3-(difluoromethyl)-5,5-difluoro-3b,4,4a,5-tetrahydro-1H-cyclopropa[3,4]cyclopenta[1,2-c]pyrazol-1-yl)acetamide]",18.1 µM,107%
"Cn1nc(NS(C)(=O)=O)c2cccc(-c3ccc(N4CC(C)(O)C4)nc3[C@H](Cc3cc(F)cc(F)c3)NC(=O)Cn3nc(C(F)F)c4c3C(F)(F)[C@@H]3C[C@H]43)c21 [Compound 42K, 2-((3bS,4aR)-3-(difluoromethyl)-5,5-difluoro-3b,4,4a,5-tetrahydro-1H-cyclopropa[3,4]cyclopenta[1,2-c]pyrazol-1-yl)-N—((S)-2-(3,5-difluorophenyl)-1-(6-(3-hydroxy-3-methylazetidin-1-yl)-3-(1-methyl-3-(methylsulfonamido)-1H-indazol-7-yl)pyridin-2-yl)ethyl)acetamide]",18.9 µM,92%
